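Interpolation was linear, between the two tested concentrations surrounding the appropriate level; five concentrations were tested over 48 hours in 96-well plates. GI50: concentration for 50% inhibition of growth. The concentration for full growth arrest is given as TGI.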

The text below walks through data of PubChem BioAssay (NCI).

Among the test systems are U251 CNS; MOLT-4 leukemia; NCI-H522 lung; BT-549 breast; NCI/ADR-RES ovarian; SF-268 CNS; UACC-62 melanoma; SNB-19 CNS; HCT-116 colon; IGROV1 ovarian.
Common to all, as to experiment: inhibition of tumour cell growth, NCI panel, 48 h

For the molecule `Cn1ccnc1C(=O)/C=C/c1ccc(CC(=O)Nc2ccc(S(F)(F)(F)(F)F)cc2)cc1`, the GI50 was 898 nM in the experiment on U251 CNS; 578 nM in the experiment with MOLT-4 leukemia; 3430 nM in the experiment on NCI-H522 lung; 2500 nM in the experiment with BT-549 breast; 3530 nM in the experiment with NCI/ADR-RES ovarian; 1880 nM in the experiment on SF-268 CNS. Further, the GI50 with UACC-62 melanoma is 2890 nM; with SNB-19 CNS, 2230 nM; in the experiment on HCT-116 colon it was 823 nM; in the experiment with IGROV1 ovarian, 2620 nM. The TGI with U251 CNS was determined as 3070 nM; with MOLT-4 leukemia, 1510 nM; in the experiment on NCI-H522 lung it was 6910 nM; with BT-549 breast, 5290 nM; in the experiment with NCI/ADR-RES ovarian it was 9350 nM; with SF-268 CNS, 4860 nM. The TGI in the experiment on UACC-62 melanoma turned out to be 5870 nM; in the experiment with SNB-19 CNS, 4820 nM; in the experiment on HCT-116 colon, 2870 nM; in the experiment with IGROV1 ovarian, 7290 nM.
